In patent US20110150825A1, “USES OF SELECTIVE INHIBITORS OF HDAC8 FOR TREATMENT OF INFLAMMATORY CONDITIONS” (PHARMACYCLICS, INC., priority 2006, published 2011):
Several values for one entry are separate records, joined by “and”; a condition that tells them apart may be missing. Equal entries are not always repeated. Blank lines part the entries; values can stand above or below the compound they belong to.

What was measured:
[1] = target: TNFα converting enzyme (TACE) (Homo sapiens, UniProt P78536); experiment: Purified protease assay, fluorescence (TACE); type: biochemical
Description: (§1) . Product was quantified by fluorescence (n=2) (FIG. 19). Ac-YVAD-CHO and GM-6001 served as positive controls and were used at empirically determined IC50 concentrations.

[2] = tested on: oxazolone-induced topical inflammatory model in BALB/c mice; experiment: Oxazolone-induced topical inflammatory model (ear swelling); type: in vivo
Protocol: To this end, we utilized two mouse models of allergic contact dermatitis, which are schematically illustrated in FIG. 12. […] Afterwards, the difference in the thickness of each of the two ears was compared to measure the extent of swelling (ie. inflammation).
As a further test, vehicle or the indicated compounds were administered topically in 40 μl doses 30 minutes before and 15 minutes after a second challenge (25 μl/ear of 1% oxazolone in acetone) (n=6). Ear thickness was measured 24 hours after the second challenge with a Dyer model micrometer gauge.

Caspase-1 = target: T1, Caspase-1 (Homo sapiens, UniProt P29466); experiment: Purified protease assay, fluorescence (Caspase-1); type: biochemical
T1 sequence (P29466 120-297 limits assumed): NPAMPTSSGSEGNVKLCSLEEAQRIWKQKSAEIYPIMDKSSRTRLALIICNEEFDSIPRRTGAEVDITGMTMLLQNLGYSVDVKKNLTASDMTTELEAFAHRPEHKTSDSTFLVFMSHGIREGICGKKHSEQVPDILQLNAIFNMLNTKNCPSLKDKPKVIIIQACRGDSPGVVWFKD
T1 sequence (P29466 317-404 limits assumed): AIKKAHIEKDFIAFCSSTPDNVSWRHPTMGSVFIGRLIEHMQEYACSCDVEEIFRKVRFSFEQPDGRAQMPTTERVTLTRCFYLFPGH
Description: as §1

[3] = tested on: arachidonic acid-induced topical inflammatory model in BALE/c mice; experiment: Arachidonic acid-induced topical inflammatory model (ear swelling); type: in vivo
primary human monocytes = experiment: IL-1β secretion and IL-1β species in LPS-induced primary human monocytes (ELISA, western blotting); type: cell-based
Protocol: Culture supernatants were analyzed for cytokine levels by ELISA (FIG. 16). […] Cell lysates were also analyzed for levels of IL-1β species by western blotting (FIG. 20).
Cells were treated with 1 mM ATP for 10 minutes. Culture supernatants were analyzed for IL-1β by ELISA (FIG. 18).

TNFα converting enzyme (TACE), sequence (P78536 215-824, species assumed): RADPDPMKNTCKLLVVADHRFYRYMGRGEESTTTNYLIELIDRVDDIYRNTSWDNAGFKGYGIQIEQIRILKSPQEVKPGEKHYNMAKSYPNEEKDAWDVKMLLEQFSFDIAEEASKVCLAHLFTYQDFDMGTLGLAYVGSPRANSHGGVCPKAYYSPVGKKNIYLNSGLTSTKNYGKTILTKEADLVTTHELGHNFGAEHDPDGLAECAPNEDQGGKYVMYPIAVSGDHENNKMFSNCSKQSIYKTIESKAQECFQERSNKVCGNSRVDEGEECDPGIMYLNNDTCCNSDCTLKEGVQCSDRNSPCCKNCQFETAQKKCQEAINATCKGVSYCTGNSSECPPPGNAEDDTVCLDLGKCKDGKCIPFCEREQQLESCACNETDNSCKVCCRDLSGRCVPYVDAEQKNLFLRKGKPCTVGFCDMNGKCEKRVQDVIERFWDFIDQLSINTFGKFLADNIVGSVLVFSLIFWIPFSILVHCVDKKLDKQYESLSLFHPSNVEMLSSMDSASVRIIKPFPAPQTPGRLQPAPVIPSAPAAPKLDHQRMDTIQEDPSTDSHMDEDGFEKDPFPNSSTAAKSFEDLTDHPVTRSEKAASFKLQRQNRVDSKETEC

IC50 [1]: 60 nM
SMILES: CNC(=O)[C@H](Cc1c[nH]c2ccccc12)NC(=O)[C@@H](CC(=O)NO)CC(C)C [GM-6001, reference compound]

SMILES: COc1ccc(Cn2ccc3ccc(C(=O)NO)cc32)cc1 [Compound 23, 1-(4-methoxy-phenylmethyl)-1H-indole-6-carboxylic acid hydroxyamide]
Ear Thickness Net ([2]; 1 mg/ear × 2, topical): 12.5 ± 1.8 0.01 mm | Ear Thickness Net ([2]; 3 mg/ear × 2, topical): 7.3 ± 0.3 0.01 mm | direct inhibition of Caspase-1 protease (Caspase-1; 10 μM): does not Directly Inhibit | arachidonic acid-induced inflammation (in words) ([3]; 1 mg): reduced arachidonic acid-induced inflammation | Ear thickness L. Ear, mean (X) ([3]; TOP, 1 mg/ear × 2): 20.0 ×0.01 mm | Ear thickness Net, mean (X) ([3]; TOP, 1 mg/ear × 2): 9.7 ×0.01 mm | Ear thickness R. Ear, mean (X) ([3]; TOP, 1 mg/ear × 2): 29.7 ×0.01 mm | Ear thickness L. Ear, individual animals ([3]; TOP, 1 mg/ear × 2, N 1-6): 20 ×0.01 mm (4×) and 21 ×0.01 mm and 19 ×0.01 mm | Ear thickness Net, individual animals ([3]; TOP, 1 mg/ear × 2, N 1-6): 9 ×0.01 mm (3×) and 11 ×0.01 mm and 8 ×0.01 mm and 12 ×0.01 mm | Ear thickness R. Ear, individual animals ([3]; TOP, 1 mg/ear × 2, N 1-6): 29 ×0.01 mm (2×) and 32 ×0.01 mm (2×) and 28 ×0.01 mm (2×) | Ear thickness L. Ear, mean (X) ([3]; TOP, 3 mg/ear × 2): 20.5 ×0.01 mm | Ear thickness Net, mean (X) ([3]; TOP, 3 mg/ear × 2): 10.3 ×0.01 mm | Ear thickness R. Ear, mean (X) ([3]; TOP, 3 mg/ear × 2): 30.8 ×0.01 mm | Ear thickness L. Ear, individual animals ([3]; TOP, 3 mg/ear × 2, N 1-6): 21 ×0.01 mm (4×) and 19 ×0.01 mm and 20 ×0.01 mm | Ear thickness Net, individual animals ([3]; TOP, 3 mg/ear × 2, N 1-6): 6 ×0.01 mm (2×) and 11 ×0.01 mm and 16 ×0.01 mm (2×) and 7 ×0.01 mm | Ear thickness R. Ear, individual animals ([3]; TOP, 3 mg/ear × 2, N 1-6): 27 ×0.01 mm (2×) and 32 ×0.01 mm and 35 ×0.01 mm and 36 ×0.01 mm and 28 ×0.01 mm | direct inhibition of TACE protease ([1]; 10 μM): does not Directly Inhibit | pro-IL-1β levels in cell lysates, of control levels (densitometry) (primary human monocytes; 2 μM lane): 153% | pro-IL-1β levels in cell lysates, of control levels (densitometry) (primary human monocytes; 10 μM lane): 142%

SMILES: COc1ccc2c(c1)c(CC(=O)O)c(C)n2C(=O)c1ccc(Cl)cc1 [Indomethacin, reference compound]
Ear Thickness Net ([2]; 0.3 mg/ear × 2, topical): 9.7 ± 1.0 0.01 mm | % Inhibition ([2]; 0.3 mg/ear × 2, topical, relative to vehicle-treated control, ≧30% considered significant): (40) % | % Inhibition ([3]; TOP, 3 mg/ear × 2): (62) % | Ear thickness L. Ear, mean (X) ([3]; TOP, 3 mg/ear × 2): 20.2 ×0.01 mm | Ear thickness Net, mean (X) ([3]; TOP, 3 mg/ear × 2): 5.5 ×0.01 mm | Ear thickness R. Ear, mean (X) ([3]; TOP, 3 mg/ear × 2): 25.7 ×0.01 mm | Ear thickness L. Ear, individual animals ([3]; TOP, 3 mg/ear × 2, N 1-6): 19 ×0.01 mm and 21 ×0.01 mm (2×) and 20 ×0.01 mm (3×) | Ear thickness Net, individual animals ([3]; TOP, 3 mg/ear × 2, N 1-6): 7 ×0.01 mm and 4 ×0.01 mm and 6 ×0.01 mm (2×) and 5 ×0.01 mm (2×) | Ear thickness R. Ear, individual animals ([3]; TOP, 3 mg/ear × 2, N 1-6): 26 ×0.01 mm (4×) and 25 ×0.01 mm (2×)

IC50 (Caspase-1; positive control, read-out: empirically determined IC50 concentration, Caspase-1): 20 nM
SMILES: CC(=O)N[C@@H](Cc1ccc(O)cc1)C(=O)N[C@H](C(=O)N[C@@H](C)C(=O)N[C@H](C=O)CC(=O)O)C(C)C [Ac-YVAD-CHO, reference compound]
